# Measured values reported in patent publication US20260263606A1 (priority 2022, published 2026).
# Like-named read-outs stand apart in the source and are kept apart here.
# Tests used:
# METTL3-METTL14 [1] = target: T1, METTL3-METTL14 (Homo sapiens, UniProt Q86U44); conditions: for LLE (lipophilic ligand efficiency, pIC50-logP): calculated with DataWarrior; for LE (ligand efficiency): from TR-FRET IC50
# Target sequence in this assay (Q9HCE5 whole entry): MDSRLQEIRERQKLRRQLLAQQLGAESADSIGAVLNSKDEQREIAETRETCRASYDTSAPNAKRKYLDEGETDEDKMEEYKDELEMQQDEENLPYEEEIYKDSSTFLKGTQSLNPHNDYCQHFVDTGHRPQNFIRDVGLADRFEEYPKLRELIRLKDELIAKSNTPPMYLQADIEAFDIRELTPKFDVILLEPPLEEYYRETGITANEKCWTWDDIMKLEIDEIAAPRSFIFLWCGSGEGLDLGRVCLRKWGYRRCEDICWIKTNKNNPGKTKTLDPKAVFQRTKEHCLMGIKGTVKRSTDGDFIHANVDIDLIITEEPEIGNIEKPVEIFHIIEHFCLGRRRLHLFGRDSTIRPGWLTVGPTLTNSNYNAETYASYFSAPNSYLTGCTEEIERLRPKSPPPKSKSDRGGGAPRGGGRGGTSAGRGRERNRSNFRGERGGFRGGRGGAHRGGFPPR
# Target sequence in this assay (Q86U44 whole entry): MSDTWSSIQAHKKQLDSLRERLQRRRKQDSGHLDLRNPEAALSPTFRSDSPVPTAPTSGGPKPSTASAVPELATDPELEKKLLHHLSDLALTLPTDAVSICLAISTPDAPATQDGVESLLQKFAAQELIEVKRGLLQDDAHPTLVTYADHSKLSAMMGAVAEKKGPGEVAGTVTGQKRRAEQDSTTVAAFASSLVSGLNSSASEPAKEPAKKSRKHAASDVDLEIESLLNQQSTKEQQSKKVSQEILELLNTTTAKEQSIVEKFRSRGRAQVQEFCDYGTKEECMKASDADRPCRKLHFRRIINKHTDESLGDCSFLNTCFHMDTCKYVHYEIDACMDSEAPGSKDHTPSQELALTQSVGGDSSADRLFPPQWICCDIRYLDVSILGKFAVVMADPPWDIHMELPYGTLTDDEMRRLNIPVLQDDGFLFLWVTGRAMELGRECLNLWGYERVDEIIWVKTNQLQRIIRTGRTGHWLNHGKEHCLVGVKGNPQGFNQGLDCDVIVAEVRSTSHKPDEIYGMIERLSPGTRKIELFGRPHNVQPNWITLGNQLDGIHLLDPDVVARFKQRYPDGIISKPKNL
# [2] = Rat liver microsomes
# METTL3-METTL14 [3] = target: T1, METTL3-METTL14; assay: biochemical
# Target sequence in this assay (Q9HCE5 whole entry): as the sequence (Q9HCE5 whole entry) above
# Target sequence in this assay (Q86U44 whole entry): as the sequence (Q86U44 whole entry) above
# [4] = system: m^6A/A ratio in polyadenylated RNA, MOLM-13 cells; assay: m6A/A ratio in polyadenylated RNA by UPLC-MS/MS, MOLM-13; conditions: Homo sapiens, MOLM-13, 16 h, read-out: EC50 reduction of m^6A/A in polyadenylated RNA
# METTL3-METTL14 [5] = target: T1, METTL3-METTL14; assay: Protein thermal shift assay, METTL3/METTL14; conditions: read-out: ΔTm of METTL3/METTL14
# Target sequence in this assay (Q86U44 whole entry): as above
# Target sequence in this assay (Q9HCE5 whole entry partner): as the sequence (Q9HCE5 whole entry) above
# [6] = read-out: IC50 for N6-adenosine-methyltransferase, exemplary PROTAC compounds, Table 9, HTRF, triplicates
Compound,"LLE (lipophilic ligand efficiency, pIC50-logP) (METTL3-METTL14 [1])",IC50 (METTL3-METTL14 [1]; [6]),also measured
CNc1cc(N2CCCC(O)(CNC(=O)c3ccc(CN4CCC(C)(C)CC4)cc3)C2)ncn1 (stereo not shown) [Compound 1],2.5,,LE (ligand efficiency) (METTL3-METTL14 [1]): 0.21 kcal.mol^−1 heavy atom count^−1
CNc1cc(N2CCC(O)(CNc3ccc(CN4CCC(C)(C)CC4)cc3)CC2)ncn1 [Compound 2],2.5,,IC50 (METTL3-METTL14 [1]; TR-FRET assay): 5 µM
CNc1cc(N2CCC(O)(CNc3ccc(CN4CCC(C)(C)CC4)cn3)CC2)ncn1 [Compound 3],3.2,,IC50 (METTL3-METTL14 [1]; TR-FRET assay): 4.6 µM
CNc1cc(N2CCC(O)(CNc3ccc(CN4CCC(C)(C)CC4)nc3)CC2)ncn1 [Compound 4],3.4,,IC50 (METTL3-METTL14 [1]; TR-FRET assay): 5.8 µM
CC1(C)CCN(Cc2ccc(NCC3(O)CCN(c4cc(NCc5ccccc5)ncn4)CC3)cn2)CC1 [Compound 5],,,IC50 (METTL3-METTL14 [1]; TR-FRET assay): 0.79 µM
CC1(C)CCN(Cc2ccc(C(=O)NC3CCN(c4cc(NCc5ccccc5)ncn4)CC3)cn2)CC1 [Compound 6],1.7,,LE (ligand efficiency) (METTL3-METTL14 [1]): 0.20 kcal.mol^−1 heavy atom count^−1
CC1(C)CCN(Cc2ccc(N3CC(=O)NC4(CCN(c5cc(NCCCNC(=O)CCOCCOCCNc6cccc7c6C(=O)N(C6CCC(=O)NC6=O)C7=O)ncn5)CC4)C3)cc2)CC1 (stereo not shown) [Compound 8-4],,2.47 µM,
CC1(C)CCN(Cc2ccc(N3CC(=O)NC4(CCN(c5cc(NCCCNC(=O)CCOCCOCCOCCNc6cccc7c6C(=O)N(C6CCC(=O)NC6=O)C7=O)ncn5)CC4)C3)cc2)CC1 (stereo not shown) [Compound 9-5],,1.06 µM,
"CNc1cc(N2CCC3(CC2)CN(c2ccc(CN4CCC(C)(C)CC4)cc2)CC(=O)N3)ncn1 [Compound 10, 4-(4-((4,4-dimethylpiperidin-1-yl)methyl)phenyl)-9-(6-(methylamino)pyrimidin-4-yl)-1,4,9-triazaspiro[5.5]undecan-2-one]",,,IC50 (METTL3-METTL14 [1]; TR-FRET assay): 0.089 µM
CC1(C)CCN(Cc2ccc(N3CC(=O)NC4(CCN(c5cc(NCCCNC(=O)CCOCCOCCOCCOCCNc6cccc7c6C(=O)N(C6CCC(=O)NC6=O)C7=O)ncn5)CC4)C3)cc2)CC1 (stereo not shown) [Compound 10-6],,0.59 µM,
"CNc1cc(N2CC3(CN(c4ccc(CN5CCC(C)(C)CC5)cc4)CC(=O)N3)C2)ncn1 [Compound 11, 8-(4-((4,4-Dimethylpiperidin-1-yl)methyl)phenyl)-2-(6-(methylamino)pyrimidin-4-yl)-2,5,8-triazaspiro[3.5]nonan-6-one]",4.5,,RLM t1/2 [2]: 70 min; LE (ligand efficiency) (METTL3-METTL14 [1]): 0.26 kcal.mol^−1 heavy atom count^−1
CC1(C)CCN(Cc2ccc(N3CC(=O)NC4(CCN(c5cc(NCCCNC(=O)CCOCCOCCOCCOCCOCCNc6cccc7c6C(=O)N(C6CCC(=O)NC6=O)C7=O)ncn5)CC4)C3)cc2)CC1 (stereo not shown) [Compound 11-7],,0.64 µM,
CNc1cc(N2CCC3(CC2)CN(c2ccc(CN4CCC(C)(C)CC4)cc2)C(=O)N3)ncn1 [Compound 12],2.6,,LE (ligand efficiency) (METTL3-METTL14 [1]): 0.23 kcal.mol^−1 heavy atom count^−1
CC1(C)CCN(Cc2ccc(N3CC(=O)NC4(CCN(c5cc(NCCCNC(=O)CCn6cc(CNc7cccc8c7C(=O)N(C7CCC(=O)NC7=O)C8=O)nn6)ncn5)CC4)C3)cc2)CC1 (stereo not shown) [Compound 13-11],,,IC50 (METTL3-METTL14 [3]): 1.8 µM
CNc1cc(N2CCC3(CC2)CN(c2ccc(CN4CCC(C)(C)CC4)cc2)CC(=O)N3C)ncn1 [Compound 13],3.0,,IC50 (METTL3-METTL14 [1]; TR-FRET assay): 1.5 µM; LE (ligand efficiency) (METTL3-METTL14 [1]): 0.22 kcal.mol^−1 heavy atom count^−1
CC1(C)CCN(Cc2ccc(N3CC(=O)NC4(CCN(c5cc(NCCCNC(=O)CCCCCCCCNc6cccc7c6CN(C6CCC(=O)NC6=O)C7=O)ncn5)CC4)C3)cc2)CC1 (stereo not shown) [Compound 14-12],,0.26 µM,
CN(C)c1cc(N2CCC3(CC2)CN(c2ccc(CN4CCC(C)(C)CC4)cc2)CC(=O)N3)ncn1 [Compound 14],3.2,,LE (ligand efficiency) (METTL3-METTL14 [1]): 0.23 kcal.mol^−1 heavy atom count^−1

Compound,"LLE (lipophilic ligand efficiency, pIC50-logP) (METTL3-METTL14 [1])",IC50 (METTL3-METTL14 [1]; [6]),also measured
"CC(C)Nc1cc(N2CCC3(CC2)CN(c2ccc(CN4CCC(C)(C)CC4)cc2)CC(=O)N3)ncn1 [Compound 15, 4-(4-((4,4-Dimethylpiperidin-1-yl)methyl)phenyl)-9-(6-(isopropylamino)pyrimidin-4-yl)-1,4,9-triazaspiro[5.5]undecan-2-one]",3.2,,LE (ligand efficiency) (METTL3-METTL14 [1]): 0.24 kcal.mol^−1 heavy atom count^−1
CC1(C)CCN(Cc2ccc(N3CC(=O)NC4(CCN(c5cc(NCCCNC(=O)CNc6cccc7c6CN(C6CCC(=O)NC6=O)C7=O)ncn5)CC4)C3)cc2)CC1 (stereo not shown) [Compound 15-13],,,IC50 (METTL3-METTL14 [3]): 0.52 µM
CC1(C)CCN(Cc2ccc(N3CC(=O)NC4(CCN(c5ccnc6[nH]ccc56)CC4)C3)cc2)CC1 [Compound 18],2.3,,LE (ligand efficiency) (METTL3-METTL14 [1]): 0.20 kcal.mol^−1 heavy atom count^−1
"CC1(C)CCN(Cc2ccc(N3CC(=O)NC4(CCN(c5nc(Cl)nc6[nH]ccc56)CC4)C3)cc2)CC1 [Compound 19, 9-(2-Chloro-7H-pyrrolo[2,3-d]pyrimidin-4-yl)-4-(4-((4,4-dimethylpiperidin-1-yl)methyl)phenyl)-1,4,9-triazaspiro[5.5]undecan-2-one]",3.9,,RLM t1/2 [2]: 32 min
"CNc1cc(N2CCC3(CC2)CN(c2cc(F)c(CN4CCC(C)(C)CC4)cc2F)CC(=O)N3)ncn1 [Compound 22, 4-(4-((4,4-Dimethylpiperidin-1-yl)methyl)-2,5-difluorophenyl)-9-(6-(methylamino)pyrimidin-4-yl)-1,4,9-triazaspiro[5.5]undecan-2-one]",,,EC50 [4]: 0.7 µM; ΔTm at 100 µM (METTL3-METTL14 [5]): 4.7 °C
CC1(C)CCN(Cc2cc(F)c(N3CC(=O)NC4(CCN(c5cc(NCC6CCN(C(=O)CCCCCCCCN7CCN(c8cccc9c8C(=O)N(C8CCC(=O)NC8=O)C9=O)CC7)CC6)ncn5)CC4)C3)cc2F)CC1 (stereo not shown) [Compound 49-1],,,IC50 (METTL3-METTL14 [3]): 0.005 µM
CC1(C)CCN(Cc2cc(F)c(N3CC(=O)NC4(CCN(c5cc(NCc6cccc(CNC(=O)CCCCCCCCNc7cccc8c7CN(C7CCC(=O)NC7=O)C8=O)c6)ncn5)CC4)C3)cc2F)CC1 (stereo not shown) [Compound 50-1],,0.067 µM,
CC1(C)CCN(Cc2cc(F)c(N3CC(=O)NC4(CCN(c5cc(NCc6cccc(CNC(=O)CCCCCCCCCCNc7cccc8c7CN(C7CCC(=O)NC7=O)C8=O)c6)ncn5)CC4)C3)cc2F)CC1 (stereo not shown) [Compound 51-1],,0.16 µM,
CC1(C)CCN(Cc2cc(F)c(N3CC(=O)NC4(CCN(c5cc(NCc6cccc(CNC(=O)CCCCCCCCn7cc(CNc8cccc9c8C(=O)N(C8CCC(=O)NC8=O)C9=O)nn7)c6)ncn5)CC4)C3)cc2F)CC1 (stereo not shown) [Compound 52-1],,0.088 µM,
CC1(C)CCN(Cc2cc(F)c(N3CC(=O)NC4(CCN(c5cc(NCc6cccc(CNC(=O)CCn7cc(CNc8cccc9c8C(=O)N(C8CCC(=O)NC8=O)C9=O)nn7)c6)ncn5)CC4)C3)cc2F)CC1 (stereo not shown) [Compound 53-1],,,IC50 (METTL3-METTL14 [3]): 0.2 µM
CC1(C)CCN(Cc2ccc(N3CC(=O)NC4(CCN(c5cc(NCCCNC(=O)CCCCCCCCCCCCCCNc6cccc7c6CN(C6CCC(=O)NC6=O)C7=O)ncn5)CC4)C3)cc2)CC1 (stereo not shown) [Compound 54-1],,1.22 µM,
CC1(C)CCN(Cc2cc(F)c(N3CC(=O)NC4(CCN(c5cc(NCCCNC(=O)CCCCCCCCNc6cccc7c6CN(C6CCC(=O)NC6=O)C7=O)ncn5)CC4)C3)cc2F)CC1 (stereo not shown) [Compound 55-1],,0.066 µM,
CC1(C)CCN(Cc2cc(F)c(N3CC(=O)NC4(CCN(c5cc(NCCCNC(=O)CCCCCCCCCCNc6cccc7c6CN(C6CCC(=O)NC6=O)C7=O)ncn5)CC4)C3)cc2F)CC1 (stereo not shown) [Compound 56-1],,0.3 µM,
CC1(C)CCN(Cc2ccc(N3CC(=O)NC4(CCN(c5cc(NCCCNC(=O)CCCCCCCCn6cc(CNc7cccc8c7C(=O)N(C7CCC(=O)NC7=O)C8=O)nn6)ncn5)CC4)C3)cc2)CC1 (stereo not shown) [Compound 57-1],,,IC50 (METTL3-METTL14 [3]): 0.48 µM
CC1(C)CCN(Cc2cc(F)c(N3CC(=O)NC4(CCN(c5cc(NCCCNC(=O)CCCCCCCCn6cc(CNc7cccc8c7C(=O)N(C7CCC(=O)NC7=O)C8=O)nn6)ncn5)CC4)C3)cc2F)CC1 (stereo not shown) [Compound 58-1],,0.067 µM,
CC1(C)CCN(Cc2cc(F)c(N3CC(=O)NC4(CCN(c5cc(NCCCNC(=O)CCCCCCCCCCn6cc(CNc7cccc8c7C(=O)N(C7CCC(=O)NC7=O)C8=O)nn6)ncn5)CC4)C3)cc2F)CC1 (stereo not shown) [Compound 59-1],,0.22 µM,
"Nc1ncnc2c1ncn2[C@@H]1O[C@H](CSCC[C@H](N)C(=O)O)[C@@H](O)[C@H]1O [SAH, S-adenosyl-L-homocysteine, reference compound]",,,ΔTm at 100 µM (METTL3-METTL14 [5]): 2.8 °C
